Results from paper PMC8156151 (The European Respiratory Journal, 2021).

Tests used:
Type in all cases: in vivo, human
[1] = system: PAI-1; assay: Plasma biomarker PAI-1; conditions: for PAI-1 raw data, Mean (SD) / PAI-1 least square means % baseline±SEM: IPF patients
Description: (§1) All patients, investigators, sites and study sponsor personnel were blinded to the study group assignments throughout the study. Patients underwent study-specific assessments on days 2, 3, 7, 14 and 15, and a post-study assessment was carried out 26–30 days after the last day of the study period. Assessments included vital signs (supine blood pressure, pulse, oxygen saturation, oral temperature and respiratory rate), spirometry, 12-lead ECG, physical examination, laboratory safety screen (haematology, biochemistry, urinalysis and urinary drugs of abuse screen) and blood sampling for PK measurements. All adverse events and concomitant medications were recorded from the time of the screening visit until the post-study follow-up visit. BAL was performed at day −1 (24 h before the first dose) and at day 14 (2 h after the last dose). The BAL procedure was performed as per international guidelines. Briefly, 240 mL of 0.9% saline at room temperature was instilled in 40 mL aliquots into the right middle lobe and aspirated by suction after each aliquot.
(§2) BAL cells were separated from fluid by centrifugation, and cells were collected, stained with antibodies (supplementary material) and then fixed before analysis using a LSR Fortessa flow cytometer (Becton Dickinson, Franklin Lakes, NJ, USA). Data were analysed using FlowJo software (Tree Star, Ashland, OR, USA). Macrophages were identified as having high side scatter properties and human leukocyte antigen-DR positivity. Gal-3 expression (mean fluorescence intensity) was determined from the macrophage gate (supplementary figures S1 and S2). […] Samples were analysed by magnetic Luminex assay (R&D Systems, Minneapolis, MN, USA) or ELISA.
(§3) For part 2 of the study, placebos were combined from the three dose-specific cohorts into a pooled control group (n=9). For alveolar macrophage Gal-3 expression and the plasma biomarkers, ANCOVA was performed for percentage of baseline ((day 14/day 1)×100). The ANCOVA model included effects for treatment group and baseline (day 1) value. […] An additional analysis including dose as a continuous covariate was also performed. The Pearson correlation coefficient (r) and associated p-value were calculated for percentage of baseline and day 14 values between plasma biomarkers and alveolar macrophage Gal-3 expression. […] The analysis is exploratory and there was no pre-planned adjustment for multiple testing; the study was not powered for this. Alveolar macrophage Gal-3 expression was considered the primary exploratory analysis with the pre-selected biomarkers secondary. A Bonferroni correction for multiple testing of the secondary end-points comparing the 10 mg group with placebo gives a critical value of 0.0063. Data are presented as the difference in least square means with 95% confidence interval and p-value unless otherwise stated. All analyses were performed using SAS version 9.4 (SAS Institute, Cary, NC, USA). […]

[2] = system: IL-13; assay: Plasma biomarker IL-13; conditions: for IL-13 raw data, Mean (SD) / IL-13 least square means % baseline±SEM: IPF patients
Description: as §1, §2, §3

[3] = system: HGF; assay: Plasma biomarker HGF; conditions: for HGF raw data, Mean (SD) / HGF least square means % baseline±SEM: IPF patients
Description: as §1, §2, §3

[4] = system: BAL cells; assay: BAL cell classification and quantification (flow cytometry); conditions: any dose groups
Description: Dickinson, NJ, USA). Data were analysed using FlowJo software (Becton Dickinson, NJ, […]
identify cell populations based on surface marker expression. The antibodies used were Gal-3- […]
Biolegend except Gal-3-FITC which was from Cedarlane. Macrophages were identified as having high side scatter properties and HLA-DR positivity. Gal-3 expression (mean fluorescence intensity, MFI) was determined from the macrophage gate. Macrophage subsets […]
Plasma pharmacodynamic biomarkers
Secreted], CCL18 [pulmonary and activation-regulated chemokine], CCL26 [eotaxin], […]
A disease relevance score was
(supplementary table S2).
BAL cell classification and quantification
CD163 and CD206 expression (supplemental figure S2). […]
following treatment with TD139 in the high dose group.

[5] = system: Periostin; assay: Plasma biomarker periostin; conditions: for Periostin raw data, Mean (SD) / Periostin least square means % baseline±SEM: IPF patients
Description: as §1, §2, §3

[6] = system: PDGF-BB; assay: Plasma biomarker PDGF-BB (Luminex/ELISA); conditions: for PDGF-BB raw data, Mean (SD) / PDGF-BB least square means % baseline±SEM: IPF patients
Description: as §1, §2, §3

[7] = system: MMP-1; assay: Plasma biomarker MMP-1; conditions: for MMP-1 raw data, Mean (SD) / MMP-1 least square means % baseline±SEM: IPF patients
Description: as §1, §2, §3

Compound: OC[C@H]1O[C@@H](S[C@@H]2O[C@H](CO)[C@H](O)[C@H](n3cc(-c4cccc(F)c4)nn3)[C@H]2O)[C@H](O)[C@@H](n2cc(-c3cccc(F)c3)nn2)[C@H]1O [TD139]
- PAI-1 difference in least square means % baseline (95% CI) ([1]; 10 mg vs placebo, ANCOVA): −151.8 (−265.3– −38.2) % baseline
- PAI-1 raw data, Mean (SD) ([1]; Day 14, 0.3 mg): 45736.7 (29863.26) pg/ml
- PAI-1 raw data, Mean (SD) ([1]; Day 14, 3 mg): 45744.4 (44222.1) pg/ml
- PAI-1 raw data, Mean (SD) ([1]; Day 14, 10 mg): 23122.2 (12659.84) pg/ml
- PAI-1 least square means % baseline±SEM ([1]; day 14, 0.3 mg once daily): 84.6±48.8 % baseline
- PAI-1 least square means % baseline±SEM ([1]; day 14, 3 mg once daily): 92.4±44.5 % baseline
- PAI-1 least square means % baseline±SEM ([1]; day 14, 10 mg once daily): 45.8±43.7 % baseline
- IL-13 difference in least square means % baseline (95% CI) ([2]; 10 mg vs placebo, ANCOVA): −7.6 (−30.4–15.2) % baseline
- IL-13 raw data, Mean (SD) ([2]; Day 14, 0.3 mg): 1219.4 (155.7) pg/ml
- IL-13 raw data, Mean (SD) ([2]; Day 14, 3 mg): 1476.6 (140.99) pg/ml
- IL-13 raw data, Mean (SD) ([2]; Day 14, 10 mg): 1358.8 (149.34) pg/ml
- IL-13 least square means % baseline±SEM ([2]; day 14, 0.3 mg once daily): 87.4±8.8 % baseline
- IL-13 least square means % baseline±SEM ([2]; day 14, 3 mg once daily): 100.4±9.5 % baseline
- IL-13 least square means % baseline±SEM ([2]; day 14, 10 mg once daily): 97.6±8.8 % baseline
- HGF difference in least square means % baseline (95% CI) ([3]; 10 mg vs placebo, ANCOVA): −37.2 (−85.5–11.2) % baseline
- HGF raw data, Mean (SD) ([3]; Day 14, 0.3 mg): 109.8 (23.24) pg/ml
- HGF raw data, Mean (SD) ([3]; Day 14, 3 mg): 159.1 (110.2) pg/ml
- HGF raw data, Mean (SD) ([3]; Day 14, 10 mg): 131.2 (44.47) pg/ml
- HGF least square means % baseline±SEM ([3]; day 14, 0.3 mg once daily): 100.3±17.5 % baseline
- HGF least square means % baseline±SEM ([3]; day 14, 3 mg once daily): 103.2±16.9 % baseline
- HGF least square means % baseline±SEM ([3]; day 14, 10 mg once daily): 73.2±18.8 % baseline
- abundance or frequencies of CD4+ or CD8+ T cells, Tregs, NK, NKT, B cells, neutrophils or monocytes in BAL [4]: no change in the abundance or frequencies
- Periostin difference in least square means % baseline (95% CI) ([5]; 10 mg vs placebo, ANCOVA): −5.4 (−18.8–8.0) % baseline
- Periostin raw data, Mean (SD) ([5]; Day 14, 0.3 mg): 125952.3 (17487.63) pg/ml
- Periostin raw data, Mean (SD) ([5]; Day 14, 3 mg): 142019.1 (30390.08) pg/ml
- Periostin raw data, Mean (SD) ([5]; Day 14, 10 mg): 108663.7 (24686.82) pg/ml
- Periostin least square means % baseline±SEM ([5]; day 14, 0.3 mg once daily): 114.0±5.3 % baseline
- Periostin least square means % baseline±SEM ([5]; day 14, 3 mg once daily): 99.3±5.2 % baseline
- Periostin least square means % baseline±SEM ([5]; day 14, 10 mg once daily): 93.1±5.0 % baseline
- PDGF-BB difference in least square means % baseline (95% CI) ([6]; 10 mg vs placebo, ANCOVA): −239.5 (−384.8– −94.2) % baseline
- PDGF-BB raw data, Mean (SD) ([6]; Day 14, 0.3 mg): 1519 (1034.92) pg/ml
- PDGF-BB raw data, Mean (SD) ([6]; Day 14, 3 mg): 2201.9 (2935.52) pg/ml
- PDGF-BB raw data, Mean (SD) ([6]; Day 14, 10 mg): 1131.4 (1190.78) pg/ml
- PDGF-BB least square means % baseline±SEM ([6]; day 14, 0.3 mg once daily): 90.5±55.2 % baseline
- PDGF-BB least square means % baseline±SEM ([6]; day 14, 3 mg once daily): 103.7±54.1 % baseline
- PDGF-BB least square means % baseline±SEM ([6]; day 14, 10 mg once daily): 35.7±54.2 % baseline
- MMP-1 difference in least square means % baseline (95% CI) ([7]; 10 mg vs placebo, ANCOVA): −102.1 (−251.4–47.3) % baseline
- MMP-1 raw data, Mean (SD) ([7]; Day 14, 0.3 mg): 535.1 (449.22) pg/ml
- MMP-1 raw data, Mean (SD) ([7]; Day 14, 3 mg): 1494.4 (647.67) pg/ml
- MMP-1 raw data, Mean (SD) ([7]; Day 14, 10 mg): 537.5 (257.55) pg/ml
- MMP-1 least square means % baseline±SEM ([7]; day 14, 0.3 mg once daily): 67.3±56.3 % baseline
- MMP-1 least square means % baseline±SEM ([7]; day 14, 3 mg once daily): 107.1±59.1 % baseline
- MMP-1 least square means % baseline±SEM ([7]; day 14, 10 mg once daily): 62.1±58.1 % baseline
